Experimental data as given in patent publication US20090275605A1, “3,11 b-cis-Dihydrotetrabenazine for the Treatment of a Proliferative Disease or an Inflammatory Disease” (CAMBRIDGE LABORATORIES (IRELAND) LIMITED, priority 2005, published 2009).
Where “and” joins values, the source holds several entries; their conditions need not be identical. Identical values can stand only once. Entries after “also recorded” stand apart in the source; their conditions may differ.

How the values were obtained:
[1] = biological target: T1, Sigma σ1 Receptor (Homo sapiens, UniProt Q99720); assay: Sigma σ1 receptor radioligand binding ([3H]Haloperidol); details: for Percentage Inhibition of Specific Binding at Sigma-1 Receptor: 10 μM solutions, human jurkat cells, 8 nM [3H]Haloperidol
T1 construct: Source: Human jurkat cells; endogenous in cells; host or cells: Human Jurkat cells
T1 sequence (Q99720 whole entry): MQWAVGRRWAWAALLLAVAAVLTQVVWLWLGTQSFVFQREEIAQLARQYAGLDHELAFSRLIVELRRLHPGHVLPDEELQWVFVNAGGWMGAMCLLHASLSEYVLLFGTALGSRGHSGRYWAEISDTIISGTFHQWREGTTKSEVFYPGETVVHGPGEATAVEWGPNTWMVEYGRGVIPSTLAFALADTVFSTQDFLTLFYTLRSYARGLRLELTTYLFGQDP
Protocol: The four dihydrotetrabenazine isomers A, B, C and D subjected to specific binding assays to test their ability to bind to the sigma-1 and sigma-2 receptors. (a) Sigma σ1 Receptor: Reference: […] et al., Pharmacol. Exp. Ther., 289:251-260, (1999) Source: Human jurkat cells […] Vehicle: 1% DMSO Incubation time/Temp: 4 hours (25° C.

[2] = biological target: T2, Sigma σ2 Receptor (Rattus norvegicus, UniProt Q5U3Y7); assay: Sigma σ2 receptor radioligand binding ([3H]Ifenprodil); details: 10 μM solutions; Wistar rat brain; 3 nM [3H]Ifenprodil
T2 construct: Source: Wistar rat brain; from tissue; host or cells: Wistar rat brain
T2 sequence (Q5U3Y7 1-176): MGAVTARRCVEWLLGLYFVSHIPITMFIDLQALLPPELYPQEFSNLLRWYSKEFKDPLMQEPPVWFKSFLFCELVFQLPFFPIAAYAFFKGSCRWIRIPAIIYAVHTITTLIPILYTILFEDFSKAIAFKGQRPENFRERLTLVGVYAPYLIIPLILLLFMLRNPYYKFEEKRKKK
Protocol: The four dihydrotetrabenazine isomers A, B, C and D subjected to specific binding assays to test their ability to bind to the sigma-1 and sigma-2 receptors.
Reference: Hashimoto et al., Eur. J. Pharmacol., 236:159-163, (1993) Source: Wistar rat brain
Incubation time/Temp: 60 minutes @ 37° C.
Bmax: 1.3 pmole/mg protein Specific binding: 85% Quantitation method: Radioligand binding Significance criteria: ≧50% of maximum stimulation or inhibition

[3] = tested on: LPS/IFNγ stimulated human CD14+ monocytes; assay: LPS/IFN stimulated production of cytokines by human monocytes (CBA cytokine analysis); assay type: cell-based
Protocol: The compounds of the invention were tested to determine the extent to they can modulate the production of cytokines by human monocytes. Monocytes are precursors of macrophages and are a key source of inflammatory cytokines in a wide range of disease states.
The following treatment groups were set up.
MACS Buffer: 1×PBS pH 7.2, 2 mM EDTA (Sigma), 5% human AB serum Culture Media: 500 ml RPMI 1640 (Invitrogen), 5 ml Penstrep (Sigma), 5 ml L-glutamine (Invitrogen), 10 ml HEPES (Sigma), 5% autologous plasma. Compounds: Stock at 10 mM in absolute ethanol. LPS: Salmonella abortis at 1 mg/ml (Sigma, Cat # LI 887). IFNγ: Recombinant human at 10 μg/ml (BD Pharmacia, Cat # 554617). MACS CD14 positive selection beads and LS columns (Miltenyi Biotech). CD14: FITC antibody (Miltenyi Biotech) Buffy coat obtained from Bristol National Blood Services. 1 ml of blood should give 7×10^6 total cells.
Spin buffycoat at 3500 rpm, 10 min. Remove upper plasma layer and heat-inactivate at 56° C., 30 min. Spin at 3500 rpm, 10 min to remove heat-inactivated complement proteins etc.
1. Resuspend remaining buffycoat in an equal volume of RPMI 1 640 medium and mix by inversion. 2. Prewarm histopaque (Sigma) to room temperature (RT) and add 10 ml to a universal. 3. Gently overlay with 15 ml blood/medium mix. 4. Spin at 1600 rpm for 25 minutes at RT (no brake). 5. PBMC are separated into the interface layer between the medium and the histopaque, remove cells to a 50 ml Falcon and add 10 ml medium.
6. Spin at 1800 rpm for 10 min at RT.
7. Wash ×3 with 40 ml RPMI medium and resuspend in culture medium. Isolate CD14^+ Cells by Positive Selection with CD14^+ MicroBeads Work on ice, with pre-cooled solutions. 1. Determine cell numbers (313×10×5×10^4=1.565×10^8 total cells) 2. Remove 100 μl cell sample for Fluorescence-Activated Cell-Sorting (FACS) analysis (pre-selection sample). 3. Spin at 1800 rpm for 10 minutes at 4° C. Remove supernatant. 4. Resuspend pellet in 80 μl buffer per 1×10^7 total cells (2400 μL/total cells). 5. Add 20 μl CD14 MicroBeads per 1×10^7 total cells (400 μl/total cells). 6. Mix well and incubate for 15 minutes at 4-8° C. 7. Wash cells with 1-2 ml buffer, spin at 300×g, 10 minutes at 4° C. Remove supernatant. 8. Resuspend up to 1×10^8 cells in 500 μl buffer (1 ml/total cells). Magnetic Separation with LS Column 1. Place column in magnetic field of MACS® Separator. Rinse column with 3 ml of MACS buffer. 2. Add cell suspension to column. 3. Collect unlabelled cells which pass through. Wash column with 3×3 ml buffer, allowing the column reservoir to empty between each wash. Collect total effluent (unlabelled cell fraction). 4. Remove column from separator and place on collection tube. 5. Add 5 ml buffer to column, immediately flushing out fraction with magnetically labelled cells by applying column plunger. 6. Spin cells in MACS Buffer and resuspend cell pellet in media. 7. Perform cell count on positively selected cells. • 71×20×5×10^4=7.1×10^7 cells/ml. Have 1.75 ml∴1.24×10^8 total cells. 8. Take sample to check purity by FACS add 10 μl CD14-FITC antibody and incubate, 5 minutes at 4-8° C.
Prepare compounds at 10 mM in absolute ethanol. Dilute prior to culture in media to the required concentrations.
Isolated CD14^+ monocytes were cultured in 24-well plates at 1×10^6 cells/ml/well. The monocytes were cultured in the presence of the test compounds and controls at various dilutions as set out in the table below. After overnight incubation, LPS (10 μg/ml) and IFNγ (100 ng/ml) were added to stimulate monocyte activation and elevate CB2 expression. After 48 hours, the supernatants were removed for CBA cytokine analysis.
Bring all buffers to room temperature and vortex before use 1. Make up assay buffer by adding to 450 ml distilled H2O and mixing gently. Store at 4° C. 2. Make up biotin-conjugate mix by 600 μl of each biotin-conjugates into a universal. 3. Make up bead mix by adding 300 μl of each bead set. 4. […]

[4] = tested on: T cells (balb/c mouse spleen cells); assay: T cell proliferation (3H-thymidine incorporation, anti-CD3 coated plates); assay type: cell-based; details: plates 1-3 are triplicates
Protocol: The compounds of the invention were tested to determine the extent to they can inhibit T cell proliferation. T cells are responsible for co-ordinating the adaptive immune response and are drivers of inflammation in a wide range of disease states.
HBSS+2% HEPES buffer (500 ml+10 ml), Alpha MEM (500 ml)+2% HEPES (10 ml)+1% Pen/strep (5 ml)+2% L-Glutamine (10 ml)+50 μM 2-ME (500 μl) and Normal Mouse serum (NMS)
1. Coat 3×96 well plates columns 1-8, rows A-H with 100 μl anti-mouse CD3 at […] in PBS. 192 well in total, therefore made up 24 mls in PBS by adding 17 μl of stock at 1.44 mg/ml. Incubate 2 hours 37° C. 2. Pooled blood from 2 balb/c mice following cardiac puncture for preparation of NMS and removed spleens into HBSS+Hepes. 3. Placed blood at 37° C. for 30 minutes to clot, spun 3,000 rpm, 10 minutes in chilspin. Removed serum, filter sterilised and kept in fridge until use. 4. Transferred spleens to petri dishes containing 10 ml HBSS, used clean sterile wire mesh placed over spleen to release cells using a glass rod. Washed cells off mesh using pasteur pipette and transferred to a 15 ml tube. Spun at 1000 rpm for 10 minutes at room temperature (RT). 5. Resuspended cells, added 0.5 ml sterile DW to lyse RBC, mixed and immediately diluted in HBSS, transfered to 50 ml tube passing through cell strainer (70 μM) to remove debris, spun as above, washed cells once more in HBSS and finally resuspended in […] alpha MEM containing supplements (as above). 6. Cell counts—252 cells×2×5×10^4=2.52×10^7 cells/ml in 4 mls=10^8 cells in total. Dilute 2 mls to 25 mls to give a cell concentration of 2×10^6 cells/ml. 7. Added 250 μl NMS to cells to give a concentration of 1%. 8. Washed anti-CD3 coated plates 3×PBS. 9. Transferred 100 μl aliquots of cells to coated wells, rows A-H columns 1-8 of 3×96-well plates. Add equal volume of compounds diluted in a 96 well plate as shown below.
Transferred 3.5 μl compound at 10 mM to 346.5 μl media (1/100), transferred 35 μl of 1/100 dilution to 315 μl media (1/10) and so on down plate to give serial 1/10 dilutions of compound. Transferred 100 μl aliquots of different compound dilutions to wells of triplicate plates containing T cells.
Culture for 48 hours, then add a drop (16 μl) of ^3H-thymidine to each well and incubate overnight at 37° C. 5% CO2. Harvest. Measure ^3H-thymidine incorporation.

Structure (SMILES): COc1cc2c(cc1OC)[C@H]1C[C@H](O)[C@@H](CC(C)C)CN1CC2 (single isomer, unassigned) [Isomer B]
- Percentage Inhibition of Specific Binding at Sigma-1 Receptor [1]: 82%
- binding to the sigma-1 receptor (in words) ([1]; comparison of the four isomers): bind more strongly; also recorded: stronger binding
- Percentage Inhibition of Specific Binding at Sigma-2 Receptor [2]: 64%
- reduced production of IL-4 ([3]; LPS/IFN stimulated monocytes, 100 μM to 10 pM, FIG. 2): at the majority of concentrations tested
- reduced production of IL-2 ([3]; LPS/IFN stimulated monocytes, 100 μM to 10 pM, FIG. 3): at all concentrations tested
- reduced production of IL-5 ([3]; LPS/IFN stimulated monocytes, 100 μM to 10 pM, FIG. 4): at the majority of concentrations tested
- reduced production of IL-10 ([3]; LPS/IFN stimulated monocytes, 100 μM to 10 pM, FIG. 5): at the majority of concentrations tested
- reduced production of IL-12 ([3]; LPS/IFN stimulated monocytes, 100 μM to 10 pM, FIG. 6): at all concentrations tested
- production of a range of different cytokines in monocytes ([3]; monocytes stimulated by LPS/IFN, FIGS. 1 to 6): reduced the production
- T cell Proliferation (3H-thymidine incorporation) ([4]; listed as A = 100 μM, listed as RU350): 42 and 51.4 and 28
- T cell Proliferation (3H-thymidine incorporation) ([4]; listed as C = 1 μM, listed as RU350): 62557.5 and 58812.6 and 46179.1
- T cell Proliferation (3H-thymidine incorporation) ([4]; listed as D = 100 nM, listed as RU350): 63867.2 and 67792.8 and 54194.4
- T cell Proliferation (3H-thymidine incorporation) ([4]; listed as E = 10 nM, listed as RU350): 66290 and 70736.7 and 53277.2
- T cell Proliferation (3H-thymidine incorporation) ([4]; listed as F = 1 nM, listed as RU350): 49054.3 and 74224 and 58924.4
- T cell Proliferation (3H-thymidine incorporation) ([4]; listed as G = 100 pM, listed as RU350): 46056.3 and 60937.4 and 59965.8
- T cell Proliferation (3H-thymidine incorporation) ([4]; listed as H = 10 pM, listed as RU350): 52646.7 and 41897.1 and 57220.4

Structure (SMILES): COc1cc2c(cc1OC)[C@@H]1C[C@@H](O)[C@H](CC(C)C)CN1CC2 (single isomer, unassigned) [Isomer A]
- Percentage Inhibition of Specific Binding at Sigma-1 Receptor [1]: 48%
- Percentage Inhibition of Specific Binding at Sigma-2 Receptor [2]: 64%

Structure (SMILES): CCCCCCC(C)(C)c1cc(O)c2c(c1)OC(C)(C)C1CCC(=O)CC21 (stereo not shown) [Nab, Nabilone, reference compound]
- T cell Proliferation (3H-thymidine incorporation) ([4]; listed as B = 10 μM): 72188.2 and 78370.5 and 40910.7
- T cell Proliferation (3H-thymidine incorporation) ([4]; listed as C = 1 μM): 48534.9 and 44235.7 and 52155.5
- T cell Proliferation (3H-thymidine incorporation) ([4]; listed as D = 100 nM): 65222 and 55348.5 and 41607.6
- T cell Proliferation (3H-thymidine incorporation) ([4]; listed as E = 10 nM): 44970.2 and 46765.1 and 36442
- T cell Proliferation (3H-thymidine incorporation) ([4]; listed as F = 1 nM): 36994.3 and 35152.2 and 37988.7
- T cell Proliferation (3H-thymidine incorporation) ([4]; listed as G = 100 pM): 37202.7 and 44920.7 and 36359.1
- T cell Proliferation (3H-thymidine incorporation) ([4]; listed as H = 10 pM): 38818.1 and 34530 and 39295.7
